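Method: 48-hour compound exposure of cells in 96-well plates, five concentrations, linear interpolation of endpoints. TGI denotes the concentration required for complete inhibition of growth.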 Where a SMILES comes first, the peptide text is derived from it. The star is where a group is joined. Boc = CC(C)(C)OC(=O)*; OBn = c1ccc(CO*)cc1
Legend:
Test in all cases: NCI tumour cell line growth inhibition, 48 h
HCC-2998 colon = system: HCC-2998 colon
NCI-H226 lung = system: NCI-H226 lung
MOLT-4 leukemia = system: MOLT-4 leukemia
HCT-116 colon = system: HCT-116 colon
SF-539 CNS = system: SF-539 CNS
SNB-19 CNS = system: SNB-19 CNS
SK-MEL-2 melanoma = system: SK-MEL-2 melanoma
SR leukemia = system: SR leukemia
A549 NSCLC = system: A549 NSCLC
SK-MEL-28 melanoma = system: SK-MEL-28 melanoma
SK-MEL-5 melanoma = system: SK-MEL-5 melanoma
KM12 colon = system: KM12 colon
NCI-H23 lung = system: NCI-H23 lung
RPMI-8226 leukemia = system: RPMI-8226 leukemia
SN12C renal = system: SN12C renal
MDA-N = system: MDA-N
HS 578T breast = system: HS 578T breast
PC-3 prostate = system: PC-3 prostate
NCI/ADR-RES ovarian = system: NCI/ADR-RES ovarian
BT-549 breast = system: BT-549 breast

SMILES | TGI (HCC-2998 colon) [µM] | TGI (NCI-H226 lung) [µM] | TGI (MOLT-4 leukemia) [µM] | TGI (HCT-116 colon) [µM] | TGI (SF-539 CNS) [µM] | TGI (SNB-19 CNS) [µM] | TGI (SK-MEL-2 melanoma) [µM] | TGI (SR leukemia) [µM] | TGI (A549 NSCLC) [µM] | TGI (SK-MEL-28 melanoma) [µM] | TGI (SK-MEL-5 melanoma) [µM] | TGI (KM12 colon) [µM] | TGI (NCI-H23 lung) [µM] | TGI (RPMI-8226 leukemia) [µM] | TGI (SN12C renal) [µM] | TGI (MDA-N) [µM] | TGI (HS 578T breast) [µM] | TGI (PC-3 prostate) [µM] | TGI (NCI/ADR-RES ovarian) [µM] | TGI (BT-549 breast) [µM]
Ic1ncnc2c1ncn2C1CCCO1 (stereo not given) | > 100 | > 100 | > 100 | > 100 | > 100 | > 100 | > 100 | > 100 | > 100 | > 100 | > 100 | > 100 | > 100 | > 100 | > 100 |  |  |  |  | 
CC[C@](O)(CC(=O)O[C@H]1C(=O)O[C@@H]2C[C@H]3C(C)=CC(=O)[C@@H](O)[C@]3(C)[C@H]3[C@@]4(O)OC[C@]32[C@@H]1[C@@H](C)[C@H]4O)C(C)C | < 0.01 | < 0.01 | < 0.01 | < 0.01 | < 0.01 | < 0.01 | < 0.01 | < 0.01 |  | < 0.01 | < 0.01 | < 0.01 | < 0.01 |  | < 0.01 | < 0.01 | < 0.01 | < 0.01 | 0.242 | 
CN(C)C=Nc1cccc2nsnc12 |  | > 100 | > 100 | > 100 | > 100 | > 100 | > 100 |  | > 100 | > 100 | > 100 |  | > 100 | > 100 | > 100 | > 100 | > 100 | > 100 | > 100 | > 100
O=c1c(C=Nc2ccccc2Cl)c(O)n(-c2ccccc2)c(=O)n1-c1ccccc1 | > 100 | > 100 | > 100 | > 100 | > 100 | > 100 | > 100 |  | > 100 |  | > 100 | > 100 | > 100 | > 100 | > 100 | > 100 | > 100 | > 100 | > 100 | > 100
O=C(c1cc(Cl)cc(Cl)c1)N(C(=O)N1CCN(c2ccccc2)CC1)c1ccccc1 | > 100 | > 100 | > 100 | > 100 | > 100 | > 100 | > 100 |  | > 100 | > 100 | 75.7 | > 100 | > 100 |  | > 100 | 30.3 | > 100 | > 100 | > 100 | > 100
O=[n+]1c2ccccc2n([O-])c2ccccc21 |  | > 100 | 81.2 | > 100 | > 100 | > 100 | > 100 | > 100 | > 100 | > 100 | > 100 |  | > 100 | > 100 | > 100 |  | > 100 | > 100 | > 100 | 
COC1CC(C)C(OC)C2=CC(=O)C=C(NC(=O)/C(C)=C/C=C\C(C)C(OC(N)=O)/C(C)=C\C(C)C1OC)C2=O (stereo not given) | 2.11 | 22.4 | 1.04 | 1.51 | 1.04 | 18.1 | 21.5 | 0.729 | 31.4 | 1.05 | 15 | 1.43 | 13.8 | 4.39 | 5.48 |  |  | 23.6 |  | 
COc1cccc(OC/C(N=Cc2cccnc2)=N/NC(=O)c2ccncc2)c1 | > 100 | > 100 | > 100 | > 100 | > 100 | > 100 | > 100 |  | > 100 | > 100 |  | > 100 | > 100 | > 100 |  | > 100 | > 100 | > 100 | > 100 | > 100
C/C1=C/C(C)CC(C)OC(=O)C(C)NC(=O)C(Cc2ccc(O)c(I)c2)N(C)C(=O)CNC(=O)C(C)C1 (stereo not given) | 13.2 |  | > 52.7 | > 100 | 4.94 | > 100 | 10.2 |  | > 100 |  | 13.2 | > 100 | > 100 | 0.757 | > 100 | > 100 | 0.723 |  | > 77.3 | 0.322
O=C(Nc1ccc(Cl)cc1)C(=O)C(C(=O)c1ccccc1-c1ccccc1)C1OC(=O)c2ccccc21 (stereo not given) | 33.8 | 24 | > 100 | 32.1 | 58.4 | 38.2 | 55.5 | 82.9 | 50.7 | 36.6 | 32 | 39.4 | 53.4 | > 100 | 62.4 |  |  |  |  | 
CCOC(=O)NNC(=O)C1CSC(c2ccccc2)N1C(C)=O (stereo not given) | > 100 | > 100 | > 100 | > 100 | > 100 | > 100 | > 100 |  | > 100 |  | > 100 | > 100 | > 100 | > 100 | > 100 |  | > 100 | > 100 | > 100 | > 100
OC(CCN1CCCCC1)(c1ccccc1)c1ccccc1 |  |  | > 100 | > 100 |  | > 100 | > 100 |  | > 100 | > 100 | > 100 | > 100 | > 100 | > 100 | > 100 | > 100 |  | > 100 | > 100 | > 100
O=C1c2ccccc2C(O)(C(=O)O)C1(O)CC=C(Cl)Cl (stereo not given) | > 125 | > 125 | > 125 | > 125 | > 125 | > 78.9 | > 125 |  | > 125 | > 125 | > 125 | > 125 | > 125 | > 125 | > 125 |  |  |  | > 125 | 
COc1ccc2c(c1)/C(=C\c1c(C)nc3n1CCS3)C(=O)N2 | > 100 |  | > 100 | > 100 | 54.7 | > 100 | > 100 | > 100 | > 100 | > 100 | > 100 | > 100 | > 100 | > 100 | 73.8 | 13.6 |  | 55.2 | > 100 | 86.3
Cc1oc2c(c1C)S(=O)(=O)C(C#N)C(c1ccccc1)N2 (stereo not given) | > 100 | > 100 | 65.5 | > 100 | > 100 | > 100 | > 100 |  | > 100 | > 100 | > 100 | > 100 | > 100 |  | > 100 | 81.5 | > 100 | > 100 | > 100 | > 100
CC(C)C(NC(=O)C(Cc1ccccc1)NC(=O)OC(C)(C)C)C(=O)NCC(=O)OCc1ccccc1 (stereo not drawn) (Boc-Phe-Val-Gly-OBn; configuration not given here) | 31.9 |  | 39.7 | 40 | 43.3 | 58.4 | 32 |  |  | 30.5 |  |  | 36.1 | 42.5 | 34.5 | 33.5 |  | 29.5 | > 100 | 
N=c1oc2ccc([N+](=O)[O-])cc2cc1C(=O)NCc1ccccc1 | > 100 | 26.9 | > 100 | 32 | 33.3 | > 100 | 39.1 | > 100 | > 100 | 35.8 | 41.6 | 36.7 |  | > 100 | 36.9 |  | 42.9 | 40.3 | 33.6 | 30
Cc1cc([C@H](C#N)c2nc3ccccc3[nH]2)nc(Cl)n1 | 42.8 | > 100 | > 100 | > 100 | > 100 | > 100 | > 100 | > 100 | > 100 | > 100 | > 100 | 28.1 | > 100 | > 100 | > 100 |  | > 100 | > 100 | > 100 | > 100
COc1cc(S(=O)(=O)Nc2nc(-c3ccc(N4C(=O)C(CC(=O)O)SC4c4ccccc4O)cc3)cs2)ccc1Cl (stereo not given) | > 100 | > 100 | > 100 | > 100 | > 100 | > 100 | > 100 | > 100 | > 100 | > 100 | > 100 | > 100 | 86.7 |  | > 100 | > 100 | > 100 | > 100 | > 100 | 
O=C(O)c1ccc(P(=O)(O)c2ccc(C(=O)O)cc2Br)c(Br)c1 | > 100 | > 100 | > 100 | > 100 | > 100 | > 100 | > 100 |  | > 100 | > 100 | > 100 | > 100 | > 100 | > 100 | > 100 | > 100 | > 100 | > 100 |  | > 100
COCC(N=CN1CCCc2ccccc2[C@@H]1CCCCl)C(C)(C)C (stereo not given in full) | 33.9 | 23.9 | 15.5 | 9.48 | 24.4 | 65.1 | 38.3 | 12.2 | 66.3 | > 100 | 9.35 | 20.3 | 21.1 | 8.95 | 59 | 68.2 | 17.6 | 91.4 | 3.19 | 
COC(=O)Nc1nc2ccc(S(=O)(=O)NC(CC(C)C)C(=O)OC)cc2[nH]1 (stereo not given) |  | > 100 | 29.2 | 19.1 | 38.3 | 45 | > 100 |  | > 100 | > 100 | 4.21 | 12.6 | > 100 | > 100 | > 100 | 2.18 | 3.47 | > 100 | 59.6 | > 100
OC1(CCc2ccccc2)COC(C(F)(F)F)(C(F)(F)F)C1 (stereo not given) | > 100 | > 100 | > 100 | > 100 | > 100 | > 100 | > 100 | > 100 | > 100 | > 100 | > 100 | > 100 | > 100 | > 100 | > 100 | > 100 | > 100 | > 100 | > 100 | 
CC(C)(C)O/C=C1/C(=O)OC2C[C@@H](O[Si](C)(C)C(C)(C)C)CC12 (stereo not given in full) | > 100 | > 100 |  | > 100 |  | > 100 | > 100 |  | > 100 | > 100 | > 100 | > 100 | > 100 |  | > 100 | > 100 |  | > 100 | > 100 | > 100
COc1ccc(Nc2nnc(CCCCCCCCc3nnc(Nc4ccc(OC)cc4)o3)o2)cc1 | > 100 | > 100 | > 100 | > 100 | > 100 | > 100 | > 100 |  | > 100 | > 100 | > 100 | > 100 | > 100 |  | > 100 | > 100 |  | > 100 | > 100 | > 100
O=c1[nH]n(Cc2ccccc2Cl)c2ccc([N+](=O)[O-])cc12 | > 100 | > 100 | > 100 | > 100 | > 100 | > 100 | > 100 | > 100 | > 100 | > 100 | 52.8 | > 100 | > 100 | > 100 | > 100 | > 100 | > 100 |  | > 100 | 
